Here are results for three compounds from US20150276767A1, “SYSTEMS AND METHODS FOR IDENTIFYING CANCERS HAVING ACTIVATED PROGESTERONE RECEPTORS” (THE UNIVERSITY OF SYDNEY, priority 2014, published 2015).

Assay [1] concerns progestin-regulated genes in T-47D cells. Nature of the assay: Expression profiling in T-47D cells. The class given is cell-based, human. How it is done:
(§1) Total RNA was isolated using RNAqueous purification columns (Invitrogen). Total RNA (500 ng) was amplified and biotin labelled using Illumina TotalPrep reagents (Invitrogen). The amplified samples (750 ng) were hybridized to human whole genome HT-12 gene expression bead arrays using the recommended Illumina reagents and following the manufacturer's protocol. Raw data were analysed using Genome Studio software (Illumina). After background subtraction data and cubic spline normalization, differential expression p values were determined using the Illumina custom model of Genome Studio. Data were further analysed using Microsoft Excel and SPSS statistical software. Hierarchical clustering and self organizing map clustering were performed using GenePattern.
(§2) Onapristone ablated progestin regulation of all but 5 genes in T-47D and 6 genes in HCC1428.

Assay [2] concerns progestin-regulated genes in HCC1428 cells. Nature of the assay: Expression profiling in HCC1428 cells. The assay is classed as cell-based, human. As to conditions: onapristone with 1 nM ORG2058. The method, then: as §1, §2
In assay [3] the test system is progesterone receptor (PR) binding to genomic regions in T-47D breast cancer cells. Nature of the assay: ChIP-PCR of PR binding regions in T-47D cells. The assay is classed as cell-based, human. The method, then: Cells were cultured to 80% confluency in 15 cm tissue culture dishes, then treated for 45 minutes with 10 nM ORG2058 or vehicle. Chromatin was subsequently cross-linked by the addition of formaldehyde to the culture medium to a final concentration of 1% and incubation for 10 minutes at 37° C. Media were immediately removed and the cells were washed with cold phosphate buffered saline and harvested by scraping. Cells were collected by centrifugation and pellets were lysed 10 minutes at 4° C. in SDS buffer (1% SDS; 10 mM EDTA; 50 mM Tris-HCl, pH 8). The lysates were sonicated at 4° C. with a Branson 450 sonicator, using seven one minute bursts at 40% amplitude and 60% duty, each separated by a rest of at least one minute. Lysates were centrifuged at 13,000×g at 4° C. for 15 minutes to remove debris. […] Supernatants were diluted 1:10 with IP buffer (0.5% NP-40; 50 mM Tris, pH 8; 120 mM NaCl; 0.5 mM PMSF; Complete protease inhibitor cocktail, Roche, Ryde, Australia) and pre-cleared by incubation with Dynabeads M-280 sheep anti-mouse IgG magnetic beads (Invitrogen, Mulgrave, Australia), with gentle rotation at 4° C. for at least 2 h to reduce non-specific binding to the secondary antibody beads. Genomic DNA fragments that were bound to PR were isolated by rotation overnight at 4° C. with in-house hPRa6 and hPRa7 mouse monoclonal anti-PR antibodies and fresh sheep anti-mouse IgG magnetic beads (40 ul per 1.4 ml diluted lysate). Beads were washed sequentially with IP buffer, high salt wash buffer (0.5% NP-40, 50 mM Tris, pH 8, 500 mM NaCl, 0.5 mM PMSF), lithium wash buffer (250 mM LiCl, 0.5% NP-40, 1% sodium deoxycholate, 1 mM EDTA, pH 8, 10 mM Tris-HCl, pH 8) and TE (10 mM Tris, pH 8, 1 mM EDTA). Isolated DNA fragments were eluted twice for 15 minutes at room temperature using elution buffer (1% SDS, 0.1M NaHCO3). Cross-links were reversed by addition of 0.25M NaCl and heating to 65° C. for at least 6 h. DNA fragments were purified using Qiagen PCR purification columns (Qiagen, Doncaster, Australia). DNA fragments isolated by PR chromatin immunoprecipitation from ORG2058 treated cells were sequenced on an Illumina GA-IIx sequencer at the Ramaciotti Centre for Gene Function Analysis (University of New South Wales, Australia) and GeneWorks (Hindmarsh, Australia). Input DNA isolated from the pre-cleared ORG2058 treated samples were sequenced as a baseline control. An aliquot of DNA was isolated from the ORG2058-treated, pre-cleared sample, to serve as an input DNA control sample in next-generation sequencing.
Directed ChIP was performed using the same protocol as described for ChIP-seq. Target templates were quantitated using Platinum Sybr Green reagents (Invitrogen) in a RotorGene 6000 real-time PCR machine. Directed ChIP was carried out as described above and purified gDNA fragments were diluted 2 to 5-fold prior to quantitation by real-time qPCR.
We conducted ChIP-PCR in T-47D cells and a second breast cancer cell line HCC1428, with ORG2058, onapristone, their combination or vehicle. The concentrations used were 1 nM ORG2058 and 100 nM onapristone.

Assay [4] concerns progesterone receptor (PR) binding to genomic regions in HCC1428 breast cancer cells. Nature of the assay: ChIP-PCR of PR binding regions in HCC1428 cells. The class given is cell-based, human. How it is done:
Cells were cultured to 80% confluency in 15 cm tissue culture dishes, then treated for 45 minutes with 10 nM ORG2058 or vehicle. Chromatin was subsequently cross-linked by the addition of formaldehyde to the culture medium to a final concentration of 1% and incubation for 10 minutes at 37° C. Media were immediately removed and the cells were washed with cold phosphate buffered saline and harvested by scraping. Cells were collected by centrifugation and pellets were lysed 10 minutes at 4° C. in SDS buffer (1% SDS; 10 mM EDTA; 50 mM Tris-HCl, pH 8). The lysates were sonicated at 4° C. with a Branson 450 sonicator, using seven one minute bursts at 40% amplitude and 60% duty, each separated by a rest of at least one minute. Lysates were centrifuged at 13,000×g at 4° C. for 15 minutes to remove debris. […]
Directed ChIP was performed using the same protocol as described for ChIP-seq. Target templates were quantitated using Platinum Sybr Green reagents (Invitrogen) in a RotorGene 6000 real-time PCR machine. Directed ChIP was carried out as described above and purified gDNA fragments were diluted 2 to 5-fold prior to quantitation by real-time qPCR. […]

In a further assay the target is T1, PR (Homo sapiens, UniProt P06401).
T1 sequence (P06401 1-933): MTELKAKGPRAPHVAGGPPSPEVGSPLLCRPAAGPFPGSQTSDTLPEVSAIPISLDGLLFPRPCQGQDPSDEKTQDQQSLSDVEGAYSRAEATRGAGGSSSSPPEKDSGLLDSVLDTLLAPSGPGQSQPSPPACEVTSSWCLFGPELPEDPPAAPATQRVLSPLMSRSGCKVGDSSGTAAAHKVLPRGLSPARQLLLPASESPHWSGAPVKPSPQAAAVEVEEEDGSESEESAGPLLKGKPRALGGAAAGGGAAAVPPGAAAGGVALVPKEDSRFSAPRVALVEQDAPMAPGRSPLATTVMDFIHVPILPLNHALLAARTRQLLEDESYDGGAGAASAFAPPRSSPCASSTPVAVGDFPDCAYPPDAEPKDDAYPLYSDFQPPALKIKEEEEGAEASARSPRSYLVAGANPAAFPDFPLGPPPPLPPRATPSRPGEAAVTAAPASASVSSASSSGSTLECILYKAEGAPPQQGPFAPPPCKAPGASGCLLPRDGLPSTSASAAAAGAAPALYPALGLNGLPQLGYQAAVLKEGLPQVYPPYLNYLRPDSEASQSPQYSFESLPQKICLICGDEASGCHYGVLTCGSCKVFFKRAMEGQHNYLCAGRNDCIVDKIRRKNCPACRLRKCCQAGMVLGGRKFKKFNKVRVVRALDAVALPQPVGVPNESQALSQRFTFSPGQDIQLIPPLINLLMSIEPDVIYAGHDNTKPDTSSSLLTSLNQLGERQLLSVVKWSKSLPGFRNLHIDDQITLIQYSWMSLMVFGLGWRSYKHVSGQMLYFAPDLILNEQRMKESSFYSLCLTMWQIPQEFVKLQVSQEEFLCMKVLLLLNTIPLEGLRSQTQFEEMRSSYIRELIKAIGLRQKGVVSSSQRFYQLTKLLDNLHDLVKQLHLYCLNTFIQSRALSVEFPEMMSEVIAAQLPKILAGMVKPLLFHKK
Particulars: relative to the synthetic analogue ORG2058; cited from earlier work.

Setting [5] is: 1 nM ORG2058, in one or both cell lines (T-47D, HCC1428).

Take `CN(C)c1ccc([C@H]2C[C@]3(C)[C@@H](CC[C@]3(O)CCCO)[C@@H]3CCC4=CC(=O)CCC4=C32)cc1` [onapristone, (8S,11R,13R,14S,17S)-11-[4-(dimethylamino)phenyl]-17-hydroxy-17-(3-hydroxypropyl)-13-methyl-1,2,6,7,8,11,12,14,15,16-decahydrocyclopenta[a]phenanthren-3-one]: the “Genes whose progestin regulation was not ablated by onapristone” value in assay [1] (T-47D, onapristone with 1 nM ORG2058) is listed as 5 genes; in assay [2] it was 6 genes. The “PR binding in the presence of onapristone alone” value in assay [3] (100 nM onapristone alone, mainly in T-47D cells) is given as “PR binding to some targets”. Further, the “Effect of onapristone on ORG effects (preliminary experiments)” value in assay [3] (100 nM onapristone with 1 nM ORG2058, cell line of preliminary experiments not stated) is reported as “ablated”. For the same compound, the “PR binding regions with attenuation of ORG2058-liganded PR binding by onapristone confirmed” value in assay [3] (T-47D, 100 nM onapristone + 1 nM ORG2058, ten regions tested) is 9 of the 10 and attenuated; in assay [4] (100 nM onapristone + 1 nM ORG2058, ten regions tested), 9 of the 10 and attenuated.
In assay [1] (setting [5]), `CC[C@@H]1C[C@H]2[C@@H]3CCC4=CC(=O)CC[C@@H]4[C@H]3CC[C@]2(C)[C@H]1C(=O)CO` [ORG2058, (8R,9S,10R,13S,14S,16R,17S)-16-ethyl-17-(2-hydroxyacetyl)-13-methyl-2,6,7,8,9,10,11,12,14,15,16,17-dodecahydro-1H-cyclopenta[a]phenanthren-3-one] showed a Differentially expressed probes of 309 probes and a Genes regulated of 267 genes. The “ORG effects at the concentration used (preliminary experiments)” value in assay [3] (1 nM ORG2058, cell line of preliminary experiments not stated) is recorded as “maximal”. Moreover, the “PR binding regions with binding by ORG2058-liganded PR confirmed” value in assay [3] (T-47D, 1 nM ORG2058, ten regions tested) is 9 of the 10. In addition, in assay [4] (1 nM ORG2058, ten regions tested), the “PR binding regions with binding by ORG2058-liganded PR confirmed” value is reported as 9 of the 10.
In the case of `CC(=O)[C@H]1CC[C@H]2[C@@H]3CCC4=CC(=O)CC[C@]4(C)[C@H]3CC[C@]12C` [progesterone], the “Dissociation from PR compared with ORG2058” value on PR is “more rapidly”.
